Literature values as cited in US20220401390A1, “TREATMENTS OF DIABETIC MACULAR EDEMA AND IMPAIRED VISUAL ACUITY” (KALVISTA PHARMACEUTICALS LIMITED, priority 2019, published 2022).

Key:
patients with DME = details: clinical trials, after one year; cited from earlier work
diabetic rats = details: cited from earlier work

aflibercept: anti-VEGF therapy for DME currently in use
Efficacy compared with laser therapy (patients with DME): more effective than laser therapy

bevacizumab: anti-VEGF therapy for DME currently in use
Efficacy compared with laser therapy (patients with DME): more effective than laser therapy

N=C(N)c1ccc(CNC(=O)c2cnn(Cc3ccccc3)c2)cc1 [ASP-440]
Retinal vascular permeability and retinal blood flow abnormalities (diabetic rats): ameliorated

pegaptanib
Efficacy compared with laser therapy (patients with DME): more effective than laser therapy

B1: ranibizumab: anti-VEGF therapy for DME currently in use (antibody, chains of the INN, looked up, V domains shown)
VH: EVQLVESGGGLVQPGGSLRLSCAASGYDFTHYGMNWVRQAPGKGLEWVGWINTYTGEPTYAADFKRRFTFSLDTSKSTAYLQMNSLRAEDTAVYYCAKYPYYYGTSHWYFDVWGQGTLVTVSS
VL: DIQLTQSPSSLSASVGDRVTITCSASQDISNYLNWYQQKPGKAPKVLIYFTSSLHSGVPSRFSGSGSGTDFTLTISSLQPEDFATYYCQQYSTVPWTFGQGTKVEIK
modifications: Fab
notes: anti-VEGF therapy for DME currently in use
Efficacy compared with laser therapy (patients with DME): more effective than laser therapy
